The test system of one experiment is human IFN-7. Description: IFN-γ release in supernatants of co-culture of tumor cells and tumor reactive CD8+ T cells (Mesoscale ELISA). The format is cell-based. Particulars: MART-1 reactive T cell-PC9 co-culture. The protocol:
Antigen specific CD8+ T-cells secrete IFN-γ upon tumor antigen recognition. To evaluate the amount of IFN-7 detected within the supernatants of co-cultures containing PC9-MART1-GFP tumor cells and tumor reactive CD8+ T cells, separate parallel co-cultures were established in Nunc 96 well plates (Sigma Aldrich) alongside the Incucyte optical plates. For evaluation of IFN-7 release, supernatants were harvested from co-cultures in the Nunc 96 well plates 24, 72 and 144 hours later. IFN-7 was measured using Mesoscale Discovery multi-spot ELISA for human IFN-7 as per the manufacturer's instructions. […] For the MART-1 tumor antigen reactive T cell-PC9 lung adenocarcinoma co-culture, IFN-7 secretion by T cells was retained in the presence of the hRS7(TROP2)-TOP1i ADC alone, AZD2936 and MEDI5752 both alone and in combination with the ADC, FIG. 4C-4D. AZD7789 enhanced IFN-7, which was retained in combination with the hRS7(TROP2)-TOP1i ADC FIG. 4E.
In general terms: In an ELISA, binding on a coated surface is turned into a signal by an enzyme label.

For the next experiment, the system named is PC9-MART1-GFP cells. Description: T cell mediated cytolysis in co-culture of MART-1 reactive CD8+ T cells and tumor cells (Incucyte, loss of GFP). The experiment is classed as cell-based. Particulars: single agent; bispecific 2 nM, ADC 0.05 μg/ml; E:T 4:1 or 5:1; five days after T cell addition. The protocol:
A co-culture assay system was developed which utilized melanoma antigen Melan A (MART-1) reactive T cells and PC9 lung adenocarcinoma cells engineered to express both the MART-1 antigen and Green Fluorescent Protein (GFP). Tumor cell lysis was evaluated utilizing the Sartorius Incucyte Live Cell Analysis System whereby loss of GFP signal intensity was used as a surrogate marker for cell death. Briefly, PC9-MART1-GFP cells were harvested from cell culture flasks using trypsin, washed once with complete RPMI media as defined in Example 1, resuspended and added to each well of 96 well clear bottom, opaque walled optical plates for 24 hours at 37° C. in 5% CO2 as per the manufacturer's instructions. The PD-1-TIGIT (AZD2936), PD-1-TIM3 (AZD7789) or PD-1-CTLA4 (MEDI5752) bispecific antibodies were used at 2 nM concentration. The hRS7(TROP2)-TOP1i ADC was used at 0.05 μg/ml. Treatments were added alone or in combination to wells immediately before rested, antigen-specific CD8+ T cells were added at effector to target (E:T) ratios of 4:1 or 5:1 effector T cells to target tumor cells depending on the donor. Tumor cell death and percent cytolysis were measured five days after T cell addition by image analysis of GFP intensity per well. Data are from experiments with 3 unique donors. Statistical significance for the indicated comparisons is denoted as * p<0.05, ** p<0.01, p<0.001.

Setting [1] is: agent alone, supernatants at 24, 72 and 144 hours.
Setting [2] is: in combination with the hRS7(TROP2)-TOP1i ADC.

On to “AZD7789: anti-TIM-3/PD-1 bispecific binding protein comprising sequences of monoclonal antibody 013-1 (TIM-3) and LO115 (PD-1)”, for which the “IFN-7 secretion by T cells” value is “enhanced” in the experiment with human IFN-7 (setting [1]) and “retained” in the experiment on human IFN-7 (setting [2]). The “T cell mediated cytolysis of PC9 tumor cells” value (“T cell mediated cytolysis” below) in the experiment on PC9-MART1-GFP cells is reported as “enhanced”.
Turning to AZD2936: PD-1-TIGIT bispecific antibody, the “IFN-7 secretion by T cells” value in the experiment on human IFN-7 (setting [1]) and in the experiment with human IFN-7 (setting [2]) was “retained” each time. In the experiment with PC9-MART1-GFP cells, the “T cell mediated cytolysis” value was “enhanced”.
Take “MEDI5752: anti-PD-1/CTLA-4 bispecific antibody”: the “IFN-7 secretion by T cells” value in the experiment on human IFN-7 (setting [1]) and in the experiment on human IFN-7 (setting [2]) was “retained” throughout. Besides, the “T cell mediated cytolysis” value in the experiment on PC9-MART1-GFP cells is reported as “enhanced”.

The values above are taken from patent US20240075160A1, “COMBINATION THERAPIES FOR TREATMENT OF CANCER” (MedImmune, LLC, priority 2022, published 2024).
